From patent publication US7960397B2, “6,9-disubstituted purine derivatives and their use as cosmetics and cosmetic compositions” (Institute of Experimental Botany, Academy of Sciences of …, priority 2007, dated 2011)

Tests used:
human osteosarcoma HOS = experiment: In vitro cytotoxicity, Calcein AM assay; details: Homo sapiens, 72 h, read-out: GI50 HOS
Description: (§1) Because only metabolically active cells cleave Calcein AM, these assays detect viable cells exclusively. The quantity of reduced Calcein AM corresponds to the number of vital cells in the culture.
(§2) The cells were maintained in Nunc/Corning 80 cm^2 plastic tissue culture flasks and cultured in cell culture medium (DMEM with 5 g/l glucose, 2 mM glutamine, 100 U/ml penicillin, 100 mg/ml streptomycin, 10% fetal calf serum and sodium bicarbonate).
(§3) The cell suspensions that were prepared and diluted according to the particular cell type and the expected target cell density (2,500-30,000 cells per well based on cell growth characteristics) were added by pipette (80 ml) into 96-well microtiter plates. Inoculates were allowed a pre-incubation period of 24 hours at 37° C. and 5% CO2 for stabilization. Four-fold dilutions of the intended test concentration were added at time zero in 20 ml aliquots to the microtiter plate wells. Usually, the compound tested was evaluated at six 4-fold dilutions. […] All drug concentrations were examined in duplicate. Incubations of cells with the tested compounds lasted for 72 hours at 37° C., in a 5% CO2 atmosphere and 100% humidity. At the end of the incubation period, the cells were assayed by using Calcein AM. Ten microliters of the stock solution were pipetted into each well and incubated for 1 hour. Fluorescence (FD) was measured with the Labsystem FIA Reader Fluoroscan Ascent (UK).

[1] = tested on: human diploid fibroblasts (HCA cells, HCA20, HCA40, HCA60); experiment: Senescent cells (β-galactosidase staining) in culture of human fibroblasts; type: cell-based
Procedure, shortened: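 Fibroblasts taken at passages 20, 40 and 60 were washed and fixed for 5 min at room temperature in 2% formaldehyde/0.2% glutaraldehyde in PBS. After PBS washes, cells were incubated at 37 °C for β-galactosidase staining.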

excised wheat leaf tips = experiment: Antisenescence test, retention of chlorophyll in excised wheat leaf tips; design: species or system Triticum aestivum cv. Hereward
Procedure, shortened: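 Winter wheat seedlings (Triticum aestivum cv. Hereward) were raised on vermiculite with Knop's solution at 25° C. for 7 days. Tips of the first leaf, 35 mm long (five tips, 100 mg combined), stood in […] of test solution in microtiter wells. After 96 h in the dark at 25° C., chlorophyll was extracted in 80% ethanol at 80° C. and read at 665 nm. Activity is relative to 10^−4 M BAP (100%).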

[2] = tested on: cytokinin-dependent tobacco callus Nicotiana tabacum L. cv. Wisconsin 38; experiment: Cytokinin activity in tobacco callus bioassay; type: cell-based
[3] = tested on: Human T-lymphoblastic leukemia cell line CEM; experiment: In vitro cytotoxicity, Calcein AM assay; details: Homo sapiens, 72 h, read-out: GI50 CEM
Description: as §1, §2, §3

[4] = tested on: promyelocytic HL-60 leukemia; experiment: In vitro cytotoxicity, Calcein AM assay; details: Homo sapiens, HL-60, 72 h, read-out: GI50 HL60
Description: as §1, §2, §3

mouse fibroblasts NIH3T3 = experiment: In vitro cytotoxicity, Calcein AM assay; details: Mus musculus, NIH3T3, 72 h, read-out: GI50 NIH-3T3
Description: as §1, §2, §3

β-adrenergic receptors = experiment: Isoproterenol-induced cAMP synthesis in rat C6 glioma; type: cell-based; details: cellular cAMP, simultaneous addition with isoproterenol, 30 min
Description: Anti-inflammatory activity. The compounds of formula 1 having anti-inflammatory activities can be used as cosmetics for treating inflammation skin disorders as atopic dermatitis, lichen planus, hyperpigmentation and Herpes simplex lesions. From this reason, rat C6 glioma (ATCC No. CCL107) was cultivated as a monolayer in a serum-free chemically defined medium containing Ham's F10-minimal essential medium (1:1 v/v), 2 mM L-glutamine, 1% (v/v) minimal essential medium vitamins (100×), 1% (v/v) minimal essential medium nonessential amino acids (100×), 100U/ml penicillin, […] streptomycin and 30 nM sodium selenite. Incubation was performed at 37° C. in a humidified atmosphere. The assays were performed in the logarithmic growth phase at a density of 2.5×10^5 cells/cm^2. Intracellular cAMP synthesis was induced by addition of […] (−)isoproterenol. After 30 min incubation at 37° C. the medium was removed and the cellular amount of cAMP was determined using the cAMP-enzyme immunoassay Amersham kit. The I50 value was determined from a dose-response curve in duplicate. The effect of the novel 6,9-disubstituted purines was measured after simultaneous addition with isoproterenol.
As P2Y1-like and A2 purinergic receptors, negatively and positively coupled to adenylate cyclase, respectively, are present in rat C6 glioma, it remains to be determined whether the modulation of the synthesis of cAMP is due to the inhibition of the activation of β-adrenergic receptors by isoproterenol, or due to the activation of purinergic receptors.

[5] = tested on: Amaranthus caudatus cotyledon/hypocotyl explants; experiment: Amaranthus bioassay (betacyanin content); design: species or system Amaranthus caudatus var. atropurpurea
Procedure, shortened: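 Amaranthus caudatus explants (cotyledons plus hypocotyl) from 72 h dark-grown seedlings were incubated in darkness on medium with 10 mmol Na2HPO4–KH2PO4 pH 6.8, 5 mmol tyrosine and test compound; stock was 10^−3 M in DMSO/water. Betacyanin was measured as A537−A620 and activity expressed relative to 10^−5 M BAP (100%).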

[6] = tested on: breast carcinoma cell line MCF-7; experiment: In vitro cytotoxicity, Calcein AM assay; details: Homo sapiens, MCF7, 72 h, read-out: GI50 MCF7
Description: as §1, §2, §3

For `Oc1ccc(CNc2ncnc3c2ncn3C2CCCCO2)cc1` (stereo not drawn) [6-(4-hydroxybenzylamino)-9-(tetrahydropyran-2-yl)purine], the GI50 (human osteosarcoma HOS) was greater than 167 µM, the “SENESCENT CELLS (%) HCA20” value ([1]; human fibroblasts passage 20 (HCA20)) was 5% and the “SENESCENT CELLS (%) HCA40” value ([1]; human fibroblasts passage 40 (HCA40)) was 5%. The “SENESCENT CELLS (%) HCA60” value ([1]; human fibroblasts passage 60 (HCA60)) was 16%, the “activity (%) [10^−4 mol · l^−1 BAP = 100%]” value (excised wheat leaf tips; retention of chlorophyll in excised wheat leaf tips at the concentration with highest activity, 10 replicate determinations) was 10.1% and the “concentration with highest activity” value (excised wheat leaf tips; retention of chlorophyll in excised wheat leaf tips, tested range 10^−8 M to 10^−4 M, 96 h in the dark at 25° C.) was 10^−4 mol · l^−1. For the same compound, the “concentration with highest activity” value ([2]; growth of tobacco callus, four weeks of cultivation, tested 10^−8 M to 10^−4 M) was 10^−5 mol · l^−1, the “Activity (%) [10^−5 mol · l^−1 BAP = 100%]” value ([2]; increase of fresh callus weight at the concentration with highest activity, 10^−5 M BAP = 100%) was 36% and the GI50 [3] was greater than 167 µM. The GI50 [4] was greater than 167 µM, the GI50 (mouse fibroblasts NIH3T3) was greater than 167 µM and the “Effect (modulation of the activity of β-adrenergic receptors)” value (β-adrenergic receptors) was 1.8-fold fold activation. The “concentration with highest activity” value ([5]; betacyanin content after 48 h incubation, tested 10^−8 M to 10^−4 M) was 10^−4 mol · l^−1, the “Activity (%) [10^−5 mol · l^−1 BAP = 100%]” value ([5]; betacyanin content at the concentration with highest activity, 10^−5 M BAP = 100%) was 25.3% and the GI50 [6] was greater than 167 µM.
